# Starred links: 1 amine or outer side, 2 acyl side, 3 side chain; linkers in the order of their positions; H or OH if unused. Non-standard residues stand in square brackets, D forms with d. Residues, ends and D or L forms follow the SMILES beside them. Groups on a side chain read outwards from the residue. *: point of attachment. X1 = O=C(O)CCCCCCCCCCCCCCCCCCC(=O)N1CCN(CC(=O)*)CC1; C20 diacid = O=C(O)CCCCCCCCCCCCCCCCCCC(=O)*; γGlu = O=C(O)[C@H](CCC(=O)[*:2])N[*:1]; AEEA = NCCOCCOCC(=O)O; Aib = CC(C)(N)C(=O)O
# What was measured:
# in vivo = conditions: male, C57BL/6J, mouse; for bioavailability: Bioavailability s.c.; for half-life: 200 nmol/kg
# human GIP R = biological target: T1, human GIP R (Homo sapiens, UniProt P48546); test: cell-based
# T1 sequence (P48546 22-466): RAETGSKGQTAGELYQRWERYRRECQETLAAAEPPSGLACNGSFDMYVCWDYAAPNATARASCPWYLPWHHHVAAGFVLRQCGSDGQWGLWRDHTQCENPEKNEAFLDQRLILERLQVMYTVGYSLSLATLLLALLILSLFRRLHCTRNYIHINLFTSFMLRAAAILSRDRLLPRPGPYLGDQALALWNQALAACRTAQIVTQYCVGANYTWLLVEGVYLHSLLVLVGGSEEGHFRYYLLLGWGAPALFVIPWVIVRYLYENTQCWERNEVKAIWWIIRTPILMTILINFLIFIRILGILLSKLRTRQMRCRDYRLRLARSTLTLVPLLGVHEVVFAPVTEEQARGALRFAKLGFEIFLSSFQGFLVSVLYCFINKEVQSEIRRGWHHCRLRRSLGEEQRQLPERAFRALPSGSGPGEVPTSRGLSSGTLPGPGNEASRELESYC
# [1] = biological target: T2, human GIP receptor (GIP R) (Homo sapiens, UniProt P48546); test: Activity assay at human GIP receptor, cAMP induction (AlphaScreen), Example 3
# T2 sequence (P48546 22-466): T1 sequence (P48546 22-466)
# [2] = biological target: human GLP-1 receptor (GLP-1R) (Homo sapiens, UniProt P43220); test: Activity assay at human GLP-1 receptor, cAMP induction (AlphaScreen), Example 3
# [3] = iv, Terminal elimination half-life T½ i.v.
# [4] = sc, Terminal elimination half-life T½ s.c.
# Chain of human GLP-1 receptor (GLP-1R) (P43220 24-463): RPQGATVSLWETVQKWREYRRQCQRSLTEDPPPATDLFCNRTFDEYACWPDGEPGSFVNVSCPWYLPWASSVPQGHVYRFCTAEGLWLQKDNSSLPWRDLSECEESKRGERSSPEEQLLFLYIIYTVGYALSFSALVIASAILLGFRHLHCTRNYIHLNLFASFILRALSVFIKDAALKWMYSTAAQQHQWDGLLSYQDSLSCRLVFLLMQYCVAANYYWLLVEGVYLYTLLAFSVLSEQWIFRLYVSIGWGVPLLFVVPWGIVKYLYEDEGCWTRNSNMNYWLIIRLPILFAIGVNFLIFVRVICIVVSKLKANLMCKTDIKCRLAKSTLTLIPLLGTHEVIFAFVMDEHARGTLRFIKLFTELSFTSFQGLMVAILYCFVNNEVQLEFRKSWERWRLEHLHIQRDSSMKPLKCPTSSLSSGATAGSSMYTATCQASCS
SMILES,bioavailability (in vivo),half-life (in vivo; [3]),Tmax (in vivo; sc),half-life (in vivo; [4]),EC50 (human GIP R),EC50 [1],EC50 [2]
CC[C@H](C)[C@H](NC(=O)[C@H](CCCCN)NC(=O)[C@H](CCC(=O)O)NC(=O)[C@H](CC(C)C)NC(=O)[C@H](CCC(=O)O)NC(=O)[C@@H](NC(=O)[C@H](CO)NC(=O)[C@H](Cc1ccc(O)cc1)NC(=O)[C@H](CC(=O)O)NC(=O)[C@H](CO)NC(=O)[C@@H](NC(=O)[C@H](Cc1ccccc1)NC(=O)[C@@H](NC(=O)CNC(=O)[C@H](CCC(=O)O)NC(=O)C(C)(C)NC(=O)[C@@H](N)Cc1ccc(O)cc1)[C@@H](C)O)[C@@H](C)CC)[C@@H](C)CC)C(=O)N[C@@H](C)C(=O)N[C@@H](CCC(N)=O)C(=O)N[C@@H](CCCNC(=N)N)C(=O)N[C@@H](C)C(=O)N[C@@H](Cc1ccccc1)C(=O)N[C@H](C(=O)N[C@@H](CCC(=O)O)C(=O)N[C@@H](Cc1c[nH]c2ccccc12)C(=O)N[C@@H](CC(C)C)C(=O)N[C@@H](CC(C)C)C(=O)N[C@@H](C)C(=O)N[C@@H](CCC(N)=O)C(=O)NCC(=O)N1CCC[C@H]1C(=O)N[C@@H](CO)C(=O)N[C@@H](CO)C(=O)NCC(=O)N[C@@H](C)C(=O)N1CCC[C@H]1C(=O)N1CCC[C@H]1C(=O)N1CCC[C@H]1C(=O)N[C@@H](CO)C(=O)N[C@@H](CCCCNC(=O)COCCOCCNC(=O)COCCOCCNC(=O)CC[C@H](NC(=O)CCCCCCCCCCCCCCCCCCC(=O)O)C(=O)O)C(N)=O)C(C)C [Compound 13] (H-Y[Aib]EGTFISDYSIELEKIAQRAFVEWLLAQGPSSGAPPPSK([AEEA-AEEA-γGlu-C20 diacid])-NH2),75%,14.4 h,8 h,13.7 h,0.014 nM,0.008 nM,> 10 nM
CC[C@H](C)[C@H](NC(=O)[C@H](CO)NC(=O)[C@H](Cc1ccc(O)cc1)NC(=O)[C@H](CC(=O)O)NC(=O)[C@H](CO)NC(=O)[C@@H](NC(=O)[C@H](Cc1ccccc1)NC(=O)[C@@H](NC(=O)CNC(=O)[C@H](CCC(=O)O)NC(=O)C(C)(C)NC(=O)[C@@H](N)Cc1ccc(O)cc1)[C@@H](C)O)[C@@H](C)CC)C(=O)N[C@@H](CCC(=O)O)C(=O)N[C@@H](CC(C)C)C(=O)N[C@@H](CC(=O)O)C(=O)N[C@@H](CCCCN)C(=O)N[C@@H](CCCCNC(=O)COCCOCCNC(=O)COCCOCCNC(=O)CC[C@H](NC(=O)CCCCCCCCCCCCCCCCCCC(=O)O)C(=O)O)C(=O)N[C@@H](C)C(=O)N[C@@H](C)C(=O)N[C@@H](CCC(N)=O)C(=O)N[C@@H](CC(=O)O)C(=O)N[C@@H](Cc1ccccc1)C(=O)N[C@H](C(=O)N[C@@H](CC(N)=O)C(=O)N[C@@H](Cc1c[nH]c2ccccc12)C(=O)N[C@@H](CC(C)C)C(=O)N[C@@H](CC(C)C)C(=O)N[C@@H](C)C(=O)NCC(=O)N1CCC[C@H]1C(=O)N[C@@H](CO)C(=O)N[C@@H](CO)C(=O)NCC(=O)N[C@@H](C)C(=O)N1CCC[C@H]1C(=O)N1CCC[C@H]1C(=O)N1CCC[C@H]1C(=O)N[C@@H](CO)C(N)=O)C(C)C [Compound 15] (H-Y[Aib]EGTFISDYSIELDKK([AEEA-AEEA-γGlu-C20 diacid])AAQDFVNWLLAGPSSGAPPPS-NH2),87%,19.2 h,8 h,16.7 h,0.012 nM,0.024 nM,> 100 nM
CC[C@H](C)[C@H](NC(=O)[C@H](CO)NC(=O)[C@H](Cc1ccc(O)cc1)NC(=O)[C@H](CC(=O)O)NC(=O)[C@H](CO)NC(=O)[C@@H](NC(=O)[C@H](Cc1ccccc1)NC(=O)[C@@H](NC(=O)CNC(=O)[C@H](CCC(=O)O)NC(=O)C(C)(C)NC(=O)[C@@H](N)Cc1ccc(O)cc1)[C@@H](C)O)[C@@H](C)CC)C(=O)N[C@@H](CCC(=O)O)C(=O)N[C@@H](CC(C)C)C(=O)N[C@@H](CC(=O)O)C(=O)N[C@@H](CCCCN)C(=O)N[C@@H](CCCCNC(=O)COCCOCCNC(=O)COCCOCCNC(=O)CC[C@H](NC(=O)CCCCCCCCCCCCCCCCCCC(=O)O)C(=O)O)C(=O)N[C@@H](C)C(=O)N[C@@H](CCC(N)=O)C(=O)N[C@@H](CCCNC(=N)N)C(=O)N[C@@H](C)C(=O)N[C@@H](Cc1ccccc1)C(=O)N[C@H](C(=O)N[C@@H](CCC(=O)O)C(=O)N[C@@H](Cc1c[nH]c2ccccc12)C(=O)N[C@@H](CC(C)C)C(=O)N[C@@H](CC(C)C)C(=O)N[C@@H](C)C(=O)N[C@@H](CCC(N)=O)C(=O)NCC(=O)N1CCC[C@H]1C(=O)N[C@@H](CO)C(=O)N[C@@H](CO)C(=O)NCC(=O)N[C@@H](C)C(=O)N1CCC[C@H]1C(=O)N1CCC[C@H]1C(=O)N1CCC[C@H]1C(=O)N[C@@H](CO)C(N)=O)C(C)C [Compound 17] (H-Y[Aib]EGTFISDYSIELDKK([AEEA-AEEA-γGlu-C20 diacid])AQRAFVEWLLAQGPSSGAPPPS-NH2),56%,16.3 h,8 h,19.9 h,0.007 nM,0.016 nM,> 3 nM
CC[C@H](C)[C@H](NC(=O)[C@H](Cc1ccccc1)NC(=O)[C@H](C)NC(=O)[C@H](CCCNC(=N)N)NC(=O)[C@H](CCC(N)=O)NC(=O)[C@H](C)NC(=O)[C@H](CCCCNC(=O)COCCOCCNC(=O)COCCOCCNC(=O)CC[C@H](NC(=O)CCCCCCCCCCCCCCCCCCC(=O)O)C(=O)O)NC(=O)[C@H](CCCCN)NC(=O)[C@H](CC(=O)O)NC(=O)[C@H](CC(C)C)NC(=O)[C@H](CCC(=O)O)NC(=O)[C@@H](NC(=O)[C@H](CO)NC(=O)[C@H](Cc1ccc(O)cc1)NC(=O)[C@H](CC(=O)O)NC(=O)[C@H](CO)NC(=O)[C@@H](NC(=O)[C@H](Cc1ccccc1)NC(=O)[C@@H](NC(=O)CNC(=O)[C@H](CCC(=O)O)NC(=O)C(C)(C)NC(=O)[C@@H](N)Cc1ccc(O)cc1)[C@@H](C)O)[C@@H](C)CC)[C@@H](C)CC)C(=O)N[C@@H](CCC(=O)O)C(=O)N[C@@H](Cc1c[nH]c2ccccc12)C(=O)N[C@@H](CC(C)C)C(=O)N[C@@H](CC(C)C)C(=O)N[C@@H](C)C(=O)N[C@@H](CCC(N)=O)C(=O)NCC(=O)N1CCC[C@H]1C(=O)N[C@@H](CO)C(=O)N[C@@H](CO)C(=O)NCC(=O)N[C@@H](C)C(=O)N1CCC[C@H]1C(=O)N1CCC[C@H]1C(=O)N1CCC[C@H]1C(=O)N[C@@H](CO)C(N)=O [Compound 18] (H-Y[Aib]EGTFISDYSIELDKK([AEEA-AEEA-γGlu-C20 diacid])AQRAFIEWLLAQGPSSGAPPPS-NH2),78%,17.6 h,4 h,15.1 h,0.006 nM,0.007 nM,> 3 nM
CC[C@H](C)[C@H](NC(=O)[C@H](CO)NC(=O)[C@H](Cc1ccc(O)cc1)NC(=O)[C@H](CC(=O)O)NC(=O)[C@H](CO)NC(=O)[C@@H](NC(=O)[C@H](Cc1ccccc1)NC(=O)[C@@H](NC(=O)CNC(=O)[C@H](CCC(=O)O)NC(=O)C(C)(C)NC(=O)[C@@H](N)Cc1ccc(O)cc1)[C@@H](C)O)[C@@H](C)CC)C(=O)N[C@@H](CCC(=O)O)C(=O)N[C@@H](CC(C)C)C(=O)N[C@@H](CC(=O)O)C(=O)N[C@@H](CCCCN)C(=O)N[C@@H](CCCCNC(=O)COCCOCCNC(=O)COCCOCCNC(=O)CN1CCN(C(=O)CCCCCCCCCCCCCCCCCCC(=O)O)CC1)C(=O)N[C@@H](C)C(=O)N[C@@H](CCC(N)=O)C(=O)N[C@@H](CCCCN)C(=O)N[C@@H](CCC(=O)O)C(=O)N[C@@H](Cc1ccccc1)C(=O)N[C@H](C(=O)N[C@@H](CCC(=O)O)C(=O)N[C@@H](Cc1c[nH]c2ccccc12)C(=O)N[C@@H](CC(C)C)C(=O)N[C@@H](CC(C)C)C(=O)N[C@@H](C)C(=O)N[C@@H](C)C(=O)NCC(=O)N1CCC[C@H]1C(=O)N[C@@H](CO)C(=O)N[C@@H](CO)C(=O)NCC(=O)N[C@@H](C)C(=O)N1CCC[C@H]1C(=O)N1CCC[C@H]1C(=O)N1CCC[C@H]1C(=O)N[C@@H](CO)C(N)=O)C(C)C [Compound 21] (H-Y[Aib]EGTFISDYSIELDKK([AEEA-AEEA-X1])AQKEFVEWLLAAGPSSGAPPPS-NH2),67%,24.8 h,8 h,21 h,0.007 nM,0.006 nM,> 3 nM
CC[C@H](C)[C@H](NC(=O)[C@H](Cc1ccccc1)NC(=O)[C@H](CC(=O)O)NC(=O)[C@H](CCC(N)=O)NC(=O)[C@H](C)NC(=O)[C@H](C)NC(=O)[C@H](CCCCNC(=O)COCCOCCNC(=O)COCCOCCNC(=O)CN1CCN(C(=O)CCCCCCCCCCCCCCCCCCC(=O)O)CC1)NC(=O)[C@H](CCCCN)NC(=O)[C@H](CC(=O)O)NC(=O)[C@H](CC(C)C)NC(=O)[C@H](CCC(=O)O)NC(=O)[C@@H](NC(=O)[C@H](CO)NC(=O)[C@H](Cc1ccc(O)cc1)NC(=O)[C@H](CC(=O)O)NC(=O)[C@H](CO)NC(=O)[C@@H](NC(=O)[C@H](Cc1ccccc1)NC(=O)[C@@H](NC(=O)CNC(=O)[C@H](CCC(=O)O)NC(=O)C(C)(C)NC(=O)[C@@H](N)Cc1ccc(O)cc1)[C@@H](C)O)[C@@H](C)CC)[C@@H](C)CC)C(=O)N[C@@H](CCC(=O)O)C(=O)N[C@@H](Cc1c[nH]c2ccccc12)C(=O)N[C@@H](CC(C)C)C(=O)N[C@@H](CC(C)C)C(=O)N[C@@H](C)C(=O)NCC(=O)N1CCC[C@H]1C(=O)N[C@@H](CO)C(=O)N[C@@H](CO)C(=O)NCC(=O)N[C@@H](C)C(=O)N1CCC[C@H]1C(=O)N1CCC[C@H]1C(=O)N1CCC[C@H]1C(=O)N[C@@H](CO)C(N)=O [Compound 33] (H-Y[Aib]EGTFISDYSIELDKK([AEEA-AEEA-X1])AAQDFIEWLLAGPSSGAPPPS-NH2),78%,21.7 h,8 h,18.7 h,0.014 nM,0.02 nM,> 10 nM

# From patent publication US12703729B2, “GIP agonist compounds and methods” (Zealand Pharma A/S, priority 2014, dated 2026)
